# Measured values from US8633206B2, “Pyrrolo[2,3-D]pyrimidine compounds” (Pfizer Inc., priority 2009, dated 2014).
# What was measured:
# Assay type in all cases: biochemical
# [1] = target: JAK2 (Homo sapiens (Human), UniProt O60674); assay: JAK enzymatic assay (peptide mobility shift), JAK2; conditions: recombinant JAK2 2 nM, JAKtide peptide, 150 minutes
# Text: (§1) Recombinant JAK1 (Catalog Number PV4775), JAK2 (Catalog Number PV4210) and JAK3 (Catalog Number PV3855) were purchased from (Invitrogen Corporation, Madison, Wis.). Tyk2 (His-Tyk2 (888-1182, C936S, C1142S)) used in this study was expressed and purified at Pfizer Laboratories. Adenosine 5′-triphosphate (ATP) was obtained from (Sigma Chemical Company, St. Louis, Mo.). […] Coating Reagent 3 was purchased from (Caliper Life Sciences, Hopkinton, Mass.).
# A peptide mobility shift assay was used to quantify the phosphorylation of the JAKtide (JAK2 and JAK3) or the IRS-1 peptide (JAK1 and Tyk2). Reactions were carried out in a 384-well plate (Matrical MP-101) in a 10 L total volume. […] Compounds were diluted serially in 100% dimethyl sulfoxide and tested in an 11 point dose response in duplicate or quadruplicate (200 nl of compound/DMSO was added per 10 L reaction). The reactions were initiated by the addition of enzyme to the final concentration of 2 nM JAK2, 1 nM JAK3, 12 nM Tyk2 or 20 nM JAK1. The assay was run for 240 minutes for JAK1, 150 minutes for JAK2, 90 minutes for JAK3 and 70 minutes for Tyk2. The assays were stopped at the specified times with 20 uL of 140 mM HEPES, 22.5 mM EDTA and 0.15% Coating Reagent 3. The plates were placed on a LabChip 3000 (LC3000) instrument from (Caliper Life Sciences) to measure the formation of phosphorylated peptide. Data was analyzed using Hits Well Analyzer Software from (Caliper Life Sciences) to obtain the amount of product formed.
# (§2) Data was then imported into an internal application where each data point is expressed as % inhibition based on uninhibited and no enzyme controls. Dose-response data is then fit using a 4 parameter logistic equation (Equation 1) to determine an IC50.
# [2] = target: JAK3 (Homo sapiens (Human), UniProt P52333); assay: JAK enzymatic assay (peptide mobility shift), JAK3; conditions: recombinant JAK3 1 nM, JAKtide peptide, 90 minutes
# Chain of JAK3 (P52333 781-1124): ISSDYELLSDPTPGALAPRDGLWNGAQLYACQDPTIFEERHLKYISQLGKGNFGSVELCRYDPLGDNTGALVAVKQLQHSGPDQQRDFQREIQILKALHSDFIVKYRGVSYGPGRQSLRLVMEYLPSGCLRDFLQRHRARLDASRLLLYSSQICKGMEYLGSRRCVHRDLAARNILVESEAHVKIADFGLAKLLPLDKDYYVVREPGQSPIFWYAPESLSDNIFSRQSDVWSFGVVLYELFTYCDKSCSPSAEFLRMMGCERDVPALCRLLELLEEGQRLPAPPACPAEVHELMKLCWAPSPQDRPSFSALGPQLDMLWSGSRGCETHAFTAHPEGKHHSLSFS
# Method: as §1, with “Tyk2 (His-Tyk2 (888-1182, C936S, C1142S)) used in this study was expressed and purified at Pfizer Laboratories.” left out
# (§3) Compounds were diluted serially in 100% dimethyl sulfoxide and tested in an 11 point dose response in duplicate or quadruplicate (200 nl of compound/DMSO was added per 10 L reaction). […] The assay was run for 240 minutes for JAK1, 150 minutes for JAK2, 90 minutes for JAK3 and 70 minutes for Tyk2. […] The plates were placed on a LabChip 3000 (LC3000) instrument from (Caliper Life Sciences) to measure the formation of phosphorylated peptide. Data was analyzed using Hits Well Analyzer Software from (Caliper Life Sciences) to obtain the amount of product formed.
# as §2
# [3] = target: JAK1 (Homo sapiens (Human), UniProt P23458); assay: JAK enzymatic assay (peptide mobility shift), JAK1; conditions: recombinant JAK1 20 nM, IRS-1 peptide, 240 minutes
# Chain of JAK1 (P23458 whole entry): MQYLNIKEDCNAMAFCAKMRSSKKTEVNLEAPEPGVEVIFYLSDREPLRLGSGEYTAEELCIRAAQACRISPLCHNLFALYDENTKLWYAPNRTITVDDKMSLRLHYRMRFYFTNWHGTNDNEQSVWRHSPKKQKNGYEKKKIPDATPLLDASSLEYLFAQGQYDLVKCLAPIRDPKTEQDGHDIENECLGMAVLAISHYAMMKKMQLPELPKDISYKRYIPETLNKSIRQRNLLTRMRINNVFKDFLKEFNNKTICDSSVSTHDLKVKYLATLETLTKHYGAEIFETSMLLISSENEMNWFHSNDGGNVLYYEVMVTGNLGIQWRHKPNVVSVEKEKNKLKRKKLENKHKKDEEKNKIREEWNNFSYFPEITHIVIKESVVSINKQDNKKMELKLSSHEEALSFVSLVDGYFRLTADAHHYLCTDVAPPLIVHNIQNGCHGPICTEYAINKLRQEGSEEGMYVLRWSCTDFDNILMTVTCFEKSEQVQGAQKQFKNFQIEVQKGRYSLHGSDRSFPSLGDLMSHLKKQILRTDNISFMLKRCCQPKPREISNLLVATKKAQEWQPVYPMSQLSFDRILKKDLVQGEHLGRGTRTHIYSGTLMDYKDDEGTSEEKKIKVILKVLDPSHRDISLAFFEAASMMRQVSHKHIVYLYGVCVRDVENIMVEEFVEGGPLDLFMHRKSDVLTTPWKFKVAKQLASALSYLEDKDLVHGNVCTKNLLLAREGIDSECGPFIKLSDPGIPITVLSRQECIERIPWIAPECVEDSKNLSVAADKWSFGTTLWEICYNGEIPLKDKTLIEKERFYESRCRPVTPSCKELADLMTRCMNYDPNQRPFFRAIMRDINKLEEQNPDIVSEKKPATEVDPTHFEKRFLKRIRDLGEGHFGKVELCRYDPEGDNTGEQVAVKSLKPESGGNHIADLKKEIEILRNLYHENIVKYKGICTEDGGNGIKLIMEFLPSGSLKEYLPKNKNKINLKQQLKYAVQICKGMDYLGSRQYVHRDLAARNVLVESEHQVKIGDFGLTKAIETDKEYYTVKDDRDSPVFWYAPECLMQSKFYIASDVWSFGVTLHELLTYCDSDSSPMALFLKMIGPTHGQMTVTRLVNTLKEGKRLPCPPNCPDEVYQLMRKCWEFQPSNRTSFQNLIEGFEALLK
# Method: as §1, with “Tyk2 (His-Tyk2 (888-1182, C936S, C1142S)) used in this study was expressed and purified at Pfizer Laboratories.” left out
# as §3, §2
# Chain of JAK2 (O60674 808-1132): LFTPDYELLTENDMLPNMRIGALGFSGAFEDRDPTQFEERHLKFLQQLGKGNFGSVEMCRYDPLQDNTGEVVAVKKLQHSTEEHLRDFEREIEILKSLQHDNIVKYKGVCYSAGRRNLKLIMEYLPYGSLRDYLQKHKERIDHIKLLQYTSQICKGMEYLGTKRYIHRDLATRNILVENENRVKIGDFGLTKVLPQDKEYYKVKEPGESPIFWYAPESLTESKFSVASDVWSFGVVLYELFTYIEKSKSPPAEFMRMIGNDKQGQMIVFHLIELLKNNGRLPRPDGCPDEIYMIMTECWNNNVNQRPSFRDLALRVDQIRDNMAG
IC50 [1],IC50 [2],IC50 [3],Structure (SMILES)
26.2 nM,234 nM,5.3 nM,"CN(c1ncnc2[nH]ccc12)[C@H]1CC[C@H](CS(=O)(=O)N2CCCC(F)C2)CC1 (stereo partly drawn) [Example 10, N-(trans-4-{[(3-fluoro-piperidin-1-yl)sulfonyl]-methyl}cyclohexyl)-N-methyl-7H-pyrrolo[2,3-d]-pyrimidin-4-amine]"
11.8 nM,119 nM,4.28 nM,"CN(c1ncnc2[nH]ccc12)[C@H]1CC[C@H](CS(=O)(=O)N2CC[C@@H](O)[C@H](O)C2)CC1 [Example 12, (3R,4R)-1-[({trans-4-[methyl(7H-pyrrolo[2,3-d]pyrimidin-4-yl)amino]-cyclohexyl}methyl)sulfonyl]-piperidine-3,4-diol]"
32 nM,275 nM,6.99 nM,"CN(c1ncnc2[nH]ccc12)[C@H]1CC[C@H](CS(=O)(=O)N2CC[C@@H](O)[C@@H](O)C2)CC1 [Example 13, (3S,4R)-1-[({trans-4-[methyl(7H-pyrrolo[2,3-d]pyrimidin-4-yl)amino]-cyclohexyl}methyl)sulfonyl]-piperidine-3,4-diol]"
16.2 nM,169 nM,5.41 nM,"CN(c1ncnc2[nH]ccc12)[C@H]1CC[C@H](CS(=O)(=O)N2CCC[C@H](O)C2)CC1 [Example 14, (3S)-1-[({trans-4-[methyl-(7H-pyrrolo[2,3-d]-pyrimidin-4-yl)amino]-cyclohexyl}methyl)sulfonyl]-piperidin-3-ol]"
32 nM,10000 nM,5.91 nM,"CN(c1ncnc2[nH]ccc12)[C@H]1CC[C@H](CS(=O)(=O)N2CCCC(COc3ccc(F)cc3)C2)CC1 (stereo partly drawn) [Example 15, N-{trans-4-[({3-[(4-fluoro-phenoxy)methyl]piperidin-1-yl}sulfonyl)methyl]-cyclohexyl}-N-methyl-7H-pyrrolo[2,3-d]pyrimidin-4-amine]"
7.71 nM,74.3 nM,2.13 nM,"CN(c1ncnc2[nH]ccc12)[C@H]1CC[C@H](CS(=O)(=O)N2CCCC(C(=O)O)C2)CC1 (stereo partly drawn) [Example 16, 1-[({trans-4-[methyl(7H-pyrrolo[2,3-d]pyrimidin-4-yl)amino]cyclohexyl}methyl)-sulfonyl]piperidine-3-carboxylic acid]"
54.7 nM,745 nM,6.06 nM,"CCCS(=O)(=O)CC1CCCN(S(=O)(=O)C[C@H]2CC[C@H](N(C)c3ncnc4[nH]ccc34)CC2)C1 (stereo partly drawn) [Example 17, N-methyl-N-{trans-4-[({3-[(propylsulfonyl)methyl]-piperidin-1-yl}sulfonyl)-methyl]-cyclohexyl}-7H-pyrrolo[2,3-d]pyrimidin-4-amine]"
19.5 nM,210 nM,9.75 nM,"Cc1nnc(C2CCCN(S(=O)(=O)C[C@H]3CC[C@H](N(C)c4ncnc5[nH]ccc45)CC3)C2)o1 (stereo partly drawn) [Example 18, N-methyl-N-[trans-4-({[3-(5-methyl-1,3,4-oxadiazol-2-yl)piperidin-1-yl]sulfonyl}methyl)-cyclohexyl]-7H-pyrrolo-[2,3-d]pyrimidin-4-amine]"
46.8 nM,492 nM,14.8 nM,"CN(c1ncnc2[nH]ccc12)[C@H]1CC[C@H](CS(=O)(=O)N2CCCC(O)(COc3cccc(F)c3)C2)CC1 (stereo partly drawn) [Example 19, 3-[(3-fluorophenoxy)-methyl]-1-[({trans-4-[methyl(7H-pyrrolo[2,3-d]pyrimidin-4-yl)amino]-cyclohexyl}methyl)sulfonyl]-piperidin-3-ol]"
15.2 nM,190 nM,1.66 nM,"CC(=O)NCC1CCCN(S(=O)(=O)C[C@H]2CC[C@H](N(C)c3ncnc4[nH]ccc34)CC2)C1 (stereo partly drawn) [Example 20, N-({1-[({trans-4-[methyl-(7H-pyrrolo[2,3-d]-pyrimidin-4-yl)amino]-cyclohexyl}methyl)sulfonyl]-piperidin-3-yl}methyl)-acetamide]"
33 nM,592 nM,11.3 nM,"CN(c1ncnc2[nH]ccc12)[C@H]1CC[C@H](CS(=O)(=O)N2CCCC(Cc3ccccn3)C2)CC1 (stereo partly drawn) [Example 21, N-methyl-N-[trans-4-({[3-(pyridin-2-ylmethyl)-piperidin-1-yl]sulfonyl}-methyl)cyclohexyl]-7H-pyrrolo[2,3-d]pyrimidin-4-amine]"
32.5 nM,138 nM,11.5 nM,"CN(c1ncnc2[nH]ccc12)[C@H]1CC[C@H](CS(=O)(=O)N2CC[C@H](O)[C@H](O)C2)CC1 [Example 22, (3R,4S)-1-[({trans-4-[methyl(7H-pyrrolo[2,3-d]pyrimidin-4-yl)amino]-cyclohexyl}methyl)sulfonyl]-piperidine-3,4-diol]"
42.1 nM,243 nM,7.74 nM,"CN(c1ncnc2[nH]ccc12)[C@H]1CC[C@H](CS(=O)(=O)N2CCC(C)(O)CC2)CC1 [Example 23, 4-methyl-1-[({trans-4-[methyl(7H-pyrrolo[2,3-d]pyrimidin-4-yl)amino]-cyclohexyl}methyl)sulfonyl]-piperidin-4-ol]"
7.42 nM,37.4 nM,5.03 nM,"CN(c1ncnc2[nH]ccc12)[C@H]1CC[C@H](CS(=O)(=O)N2CCC(O)(c3ccccc3)CC2)CC1 [Example 24, 1-[({trans-4-[methyl(7H-pyrrolo[2,3-d]pyrimidin-4-yl)amino]cyclohexyl}methyl)-sulfonyl]-4-phenyl-piperidin-4-ol]"
48.4 nM,230 nM,1.44 nM,"CN(c1ncnc2[nH]ccc12)[C@H]1CC[C@H](CS(=O)(=O)N2CC[C@H](NC(=O)OC(C)(C)C)C2)CC1 [Example 26, tert-butyl {(3S)-1-[({trans-4-[methyl(7H-pyrrolo[2,3-d]pyrimidin-4-yl)amino]-cyclohexyl}methyl)sulfonyl]-pyrrolidin-3-yl}carbamate]"
15 nM,151 nM,5.22 nM,"CN(c1ncnc2[nH]ccc12)[C@H]1CC[C@H](CS(=O)(=O)N2C[C@@H](O)[C@H](c3ccccc3)C2)CC1 [Example 29, (3S,4R)-1-[({trans-4-[methyl(7H-pyrrolo[2,3-d]pyrimidin-4-yl)amino]-cyclohexyl}methyl)sulfonyl]-4-phenylpyrrolidin-3-ol]"
8.36 nM,112 nM,3.06 nM,"CN(c1ncnc2[nH]ccc12)[C@H]1CC[C@H](CS(=O)(=O)N2CC[C@@H](CO)C2)CC1 [Example 30, {(3R)-1-[({trans-4-[methyl(7H-pyrrolo[2,3-d]pyrimidin-4-yl)amino]-cyclohexyl}methyl)sulfonyl]-pyrrolidin-3-yl}-methanol]"
14.4 nM,200 nM,2.88 nM,"CN(c1ncnc2[nH]ccc12)[C@H]1CC[C@H](CS(=O)(=O)N2CC[C@H](CO)C2)CC1 [Example 31, {(3S)-1-[({trans-4-[methyl(7H-pyrrolo[2,3-d]pyrimidin-4-yl)amino]-cyclohexyl}methyl)sulfonyl]-pyrrolidin-3-yl}-methanol]"
27.3 nM,355 nM,3.76 nM,"CN(c1ncnc2[nH]ccc12)[C@H]1CC[C@H](CS(=O)(=O)N2CC[C@H](CC#N)C2)CC1 [Example 32, {(3R)-1-[({trans-4-[methyl(7H-pyrrolo[2,3-d]pyrimidin-4-yl)amino]-cyclohexyl}methyl)sulfonyl]-pyrrolidin-3-yl}-acetonitrile]"
32.2 nM,275 nM,10.4 nM,"CN(c1ncnc2[nH]ccc12)[C@H]1CC[C@H](CS(=O)(=O)N2C[C@H](CO)[C@H](S(C)(=O)=O)C2)CC1 [Example 33, [(3R,4S)-1-[({trans-4-[methyl(7H-pyrrolo[2,3-d]pyrimidin-4-yl)amino]-cyclohexyl}methyl)sulfonyl]-4-(methylsulfonyl)-pyrrolidin-3-yl]methanol]"
16.7 nM,217 nM,7.35 nM,"CN(c1ncnc2[nH]ccc12)[C@H]1CC[C@H](CS(=O)(=O)N2CC[C@@H](F)C2)CC1 [Example 34, N-[trans-4-({[(3R)-3-fluoropyrrolidin-1-yl]sulfonyl}methyl)cyclo-hexyl]-N-methyl-7H-pyrrolo-[2,3-d]pyrimidin-4-amine]"
